Measured values reported in article PMC12777571, “The molecular basis of intrinsic resistance to azoles in Rhizopus arrhizus” (Antimicrobial Agents and Chemotherapy, 2025).
Like-named read-outs stand apart in the source and are kept apart here.

Assays:
[1] = molecular target: T1, RaCYP51-F5 + RaCPR (strain Y-F5/CPR and variants) (Rhizopus delemar, UniProt I1CTV4, A291V); test: inhibition of BOMCC hydrolysis in crude membranes, fluorescence; type: biochemical
T1 construct: gene RO3G_16595; full-length, codon-optimized, C-terminal GGR linker and 6xHis; co-expressed with 6xHis RaCPR in S. cerevisiae ADΔΔ deleted of native ERG11; crude membranes; ~60 kDa; with NADPH--cytochrome P450 reductase
T1 sequence (I1CTV4 whole entry, stated change not applied): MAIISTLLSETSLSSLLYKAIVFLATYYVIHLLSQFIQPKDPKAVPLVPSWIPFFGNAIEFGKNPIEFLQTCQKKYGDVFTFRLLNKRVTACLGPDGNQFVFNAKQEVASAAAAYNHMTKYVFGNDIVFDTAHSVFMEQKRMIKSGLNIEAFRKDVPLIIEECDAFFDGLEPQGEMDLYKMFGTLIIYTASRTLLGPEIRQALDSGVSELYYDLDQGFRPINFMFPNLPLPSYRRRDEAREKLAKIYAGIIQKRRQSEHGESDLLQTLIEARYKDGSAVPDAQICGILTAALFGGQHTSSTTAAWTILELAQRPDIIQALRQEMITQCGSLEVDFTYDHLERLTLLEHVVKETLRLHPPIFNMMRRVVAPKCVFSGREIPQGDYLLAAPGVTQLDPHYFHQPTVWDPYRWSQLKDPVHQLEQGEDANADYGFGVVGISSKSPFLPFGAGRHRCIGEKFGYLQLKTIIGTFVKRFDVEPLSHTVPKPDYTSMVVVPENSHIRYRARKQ
T1 sequence (I1CM61 whole entry, stated change not applied, further chain): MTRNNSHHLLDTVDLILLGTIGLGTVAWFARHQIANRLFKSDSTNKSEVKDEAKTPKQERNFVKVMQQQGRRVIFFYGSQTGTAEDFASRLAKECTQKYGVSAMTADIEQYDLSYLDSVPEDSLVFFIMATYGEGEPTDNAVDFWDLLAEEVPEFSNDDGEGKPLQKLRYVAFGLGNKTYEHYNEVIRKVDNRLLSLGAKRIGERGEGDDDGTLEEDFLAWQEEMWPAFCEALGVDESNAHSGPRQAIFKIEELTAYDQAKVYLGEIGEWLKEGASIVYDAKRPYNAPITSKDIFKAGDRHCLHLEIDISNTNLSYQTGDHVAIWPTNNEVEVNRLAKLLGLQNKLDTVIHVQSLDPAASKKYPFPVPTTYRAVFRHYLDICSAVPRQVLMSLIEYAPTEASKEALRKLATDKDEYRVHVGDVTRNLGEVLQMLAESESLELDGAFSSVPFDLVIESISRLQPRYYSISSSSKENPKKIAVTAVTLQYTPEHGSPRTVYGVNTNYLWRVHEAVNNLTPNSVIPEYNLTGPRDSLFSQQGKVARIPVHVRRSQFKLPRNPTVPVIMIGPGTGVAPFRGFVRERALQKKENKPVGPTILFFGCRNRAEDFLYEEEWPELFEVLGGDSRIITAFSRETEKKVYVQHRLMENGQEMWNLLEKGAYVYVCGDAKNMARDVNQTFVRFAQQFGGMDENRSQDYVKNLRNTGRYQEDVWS

[2] = molecular target: T2, RaCYP51-F1 + RaCPR (strain Y-F1/CPR) (Rhizopus delemar, UniProt I1CF49); test: as above; type: biochemical
T2 construct: gene RO3G_11790; full-length, codon-optimized, C-terminal GGR linker and 6xHis; co-expressed with 6xHis RaCPR in S. cerevisiae ADΔΔ deleted of native ERG11; crude membranes; ~60 kDa; with NADPH--cytochrome P450 reductase
From the text: inhibition of BOMCC hydrolysis in crude membranes, fluorescence on RaCYP51-F1 + RaCPR (strain Y-F1/CPR)

[3] = molecular target: T3, RaCYP51-F5 + RaCPR (strain Y-F5/CPR and variants) (Rhizopus delemar, UniProt I1CTV4); test: biochemical
T3 construct: gene RO3G_16595
From the text: inhibition of BOMCC hydrolysis in crude membranes, fluorescence on RaCYP51-F5 + RaCPR (strain Y-F5/CPR and variants)

[4] = molecular target: T4, RaCYP51-F5 + RaCPR (strain Y-F5/CPR and variants) (Rhizopus delemar, UniProt I1CTV4, F129Y); test: inhibition of BOMCC hydrolysis in crude membranes, fluorescence; type: biochemical
T4 construct: gene RO3G_16595; full-length, codon-optimized, C-terminal GGR linker and 6xHis; co-expressed with 6xHis RaCPR in S. cerevisiae ADΔΔ deleted of native ERG11; crude membranes; ~60 kDa; with NADPH--cytochrome P450 reductase
T4 sequence (I1CM61 whole entry, stated change not applied): as the sequence (I1CM61 whole entry, stated change not applied, further chain) above
T4 sequence (I1CTV4 whole entry, stated change not applied): as the sequence (I1CTV4 whole entry, stated change not applied) above

[5] = molecular target: T5, partially purified RaCYP51-F5 (Rhizopus delemar, UniProt I1CTV4); test: type II difference spectrum (Soret red shift); type: binding; details: 1.0 µM enzyme, 40 µM azole (saturating); heme iron coordination
T5 construct: gene RO3G_16595; full-length, codon-optimized, C-terminal GGR linker and 6xHis; expressed in S. cerevisiae ADΔΔ; Ni-NTA purified from n-decyl-β-D-maltoside extract; ~60 kDa
T5 sequence (I1CTV4 entry or part of it): as the sequence (I1CTV4 whole entry, stated change not applied) above

[6] = molecular target: T6, RaCYP51-F5 + RaCPR (strain Y-F5/CPR and variants) (Rhizopus delemar, UniProt I1CTV4, A291V/F129Y); test: inhibition of BOMCC hydrolysis in crude membranes, fluorescence; type: biochemical
T6 construct: gene RO3G_16595; full-length, codon-optimized, C-terminal GGR linker and 6xHis; co-expressed with 6xHis RaCPR in S. cerevisiae ADΔΔ deleted of native ERG11; crude membranes; ~60 kDa; with NADPH--cytochrome P450 reductase
T6 sequence (I1CTV4 whole entry, stated change not applied): as above
T6 sequence (I1CM61 whole entry, stated change not applied, further chain): as the sequence (I1CM61 whole entry, stated change not applied, further chain) above

| SMILES | IC50 [1] [nM] | IC50 ([2]; read-out: Posaconazole IC50) [nM] | IC50 [3] [nM] | IC50 [4] [nM] | type II difference spectrum (Soret red shift) [5] | IC50 [6] [nM] | IC50 ([2]; read-out: Voriconazole IC50) [nM] |
| --- | --- | --- | --- | --- | --- | --- | --- |
| CC[C@@H]([C@H](C)O)n1ncn(-c2ccc(N3CCN(c4ccc(OC[C@@H]5CO[C@@](Cn6cncn6)(c6ccc(F)cc6F)C5)cc4)CC3)cc2)c1=O [posaconazole] | 55 ± 7 | 21 ± 11 | 56 ± 28 | 75 ± 35 | bound posaconazole or voriconazole upon exposure to saturating levels of these drugs | 63 |  |
| C[C@@H](c1ncncc1F)[C@](O)(Cn1cncn1)c1ccc(F)cc1F [voriconazole] | 500 |  | > 1000 | 140 ± 57 | bound posaconazole or voriconazole upon exposure to saturating levels of these drugs | 60 ± 14 | 100 ± 70 |
